Laboratory results published in patent US6037334A, “Phosphonates, process for preparing the same and medicaments” (Roche Diagnostics GmbH, priority 1996, dated 2000).
Counter-ions that a name gives are not always drawn.

What was measured:
horse thrombin = assay: Thrombin Time; type: biochemical; conditions: 500 μM final; difference to the control; 37° C.; citrate plasma, ca. 3 U/ml horse thrombin
Procedure: (§1) 9 parts of fresh blood from healthy donors was mixed with one part of sodium citrate solution (0.11 mol/l) and it was centrifuged for 10 minutes at room temperature at ca. 3000 r.p.m. The plasma was removed by pipette and can be stored at room temperature for ca. 8 hours.
200 μl citrate plasma is incubated for 2 minutes at 37° C. in a ball coagulometer (KC10 from the Amelung Company). 10 μl dimethylsulfoxide (DMSO) or a solution of the active substance in DMSO is added to 190 μl pre-heated thrombin reagent (Boehringer Mannheim GmbH; contains ca. 3 U/ml horse thrombin and 0.0125 M Ca^++). On addition of 200 μl of this solution to the plasma a stopwatch is started and the time at which coagulation starts is determined. The thrombin time is ca. 24 sec. in control measurements and is extended by the active substances. If no coagulation occurred in the measurements after 5 minutes the experiment was stopped (>300).
The measured thrombin times in seconds are given in table 1 as a difference to the control. The concentrations of the active substances in the final volume were 500 μM (TT 500).

human factor Xa = human factor Xa (Homo sapiens, UniProt P00742); assay: biochemical
Sequence of human factor Xa (P00742 235-488 limits assumed): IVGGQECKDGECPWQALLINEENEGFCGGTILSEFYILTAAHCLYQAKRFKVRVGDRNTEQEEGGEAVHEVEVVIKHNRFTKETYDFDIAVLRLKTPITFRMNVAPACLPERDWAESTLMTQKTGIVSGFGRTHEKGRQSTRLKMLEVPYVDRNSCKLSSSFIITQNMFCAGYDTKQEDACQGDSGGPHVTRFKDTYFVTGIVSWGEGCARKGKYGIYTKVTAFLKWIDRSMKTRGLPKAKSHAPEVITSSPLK
Sequence of human factor Xa (P00742 41-179 partner limits assumed): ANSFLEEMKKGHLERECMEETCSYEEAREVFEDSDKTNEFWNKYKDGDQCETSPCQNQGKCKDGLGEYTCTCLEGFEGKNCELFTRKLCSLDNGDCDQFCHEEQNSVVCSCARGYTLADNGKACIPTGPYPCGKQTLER
Procedure: The kinetic measurements were carried out at pH=7.5 and 25° C. in 0.1 M phosphate buffer that contained 0.2 M sodium chloride and 0.5% polyethylene glycol 6000 (see below for preparation) in polystyrene semi-microcuvettes in a total volume of 1 ml. The reactions were started by addition of enzyme to pre-incubated solutions that contained either dimethyldisulfoxide (control) or solutions of the test substance in DMSO (inhibitor stock solutions: 10 mM in DMSO). The increase in absorbance at 405 nm due to the release of p-nitroaniline from the substrate was monitored over a time period of 12 minutes.
The inhibition constants Ki were determined as follows. […] KM and Vmax were determined from a measurement series (constant inhibitor concentration, variable substrate concentrations) by a non-linear fit to the equation [formula]
The Ki value is obtained by non-linear regression from the entire series of measurements with 16 sets of data (measurements at 4 different substrate concentrations and each with 4 different inhibitor concentrations) from the equation [formula] in which VMax denotes the maximum rate in the absence of an inhibitor, KM denotes the Michaelis constant and [S] the substrate concentration. […]

citrate plasma = assay: Activated Partial Thromboplastin Time (APTT); type: biochemical, human; conditions: difference to the control, 37° C.
Procedure: as §1
Activated Partial Thromboplastin Time (APTT)
100 μl citrate plasma and 100 μl APTT reagent (Stago Diagnostics/Boehringer Mannheim GmbH; contains cephalin lyophilisate with a microcrystalline kieselguhr activator) are incubated for 3 minutes at 37° C. together with 10 μl dimethylsulfoxide (DMSO) or 10 μl of a solution of the active substance in DMSO in a ball coagulometer (KC10 from the Amelung Company). On addition of 100 μl 0.025 M calcium chloride solution a stopwatch is started and the time at which coagulation starts is determined. The APTT is ca. 28-35 seconds in the control measurements and is extended by the active substances. If no coagulation occurred in the measurements after 5 minutes the experiment was stopped (>300).
The measured APTT times in seconds are given in table 1 as a difference to the control. The concentrations of the active substances in the final volume were 100 μM (APTT 100), 10 μM (APTT 10), 1 μM (APTT 1), 0.1 μM (APTT 0.1).

Question: Which “TT 500” value (horse thrombin) does the source give for `CCOP(=O)(OCC)C(Oc1ccc2ccc(C(=N)N)cc2c1)c1ccc(OC2CCN(C(C)=N)CC2)cc1` (stereo not drawn) [Example 1, (7-Carbamimidoyl-naphthalen-2-yloxy)-[{4-[1-(1-imino-ethyl)-piperidin-4-yloxy]-phenyl}-methyl)-phosphonic acid diethyl ester-dihydrochloride] here?
Answer: 49 s

Question: What about the Ki (human factor Xa) of the same molecule?
Answer: 2 nM

Question: And the “APTT 0.1” value (citrate plasma; 0.1 μM final)?
Answer: 8 s

Question: What about the “APTT 1” value (citrate plasma; 1 μM final) of the same molecule?
Answer: 45 s

Question: And the “APTT 10” value (citrate plasma; 10 μM final, >300 = no coagulation after 5 minutes)?
Answer: > 300 s

Question: And the “APTT 100” value (citrate plasma; 100 μM final, >300 = no coagulation after 5 minutes)?
Answer: > 300 s
